# Where two headings read alike, the source gives them in different places.
# Test system: Rhipicephalus sanguineus
# Assay: In vitro immersion of engorged female ticks in (S)-methoprene: oviposition, egg mass weight, egg hatch
# Conditions: for Eggs Weight: Day 13; for Eggs Hatch (%): 48 days after exposure; for inhibition at 100 ppm / inhibition at 1000 ppm / inhibition at 10000 ppm / inhibition at 100000 ppm: Rhipicephalus sanguineus; for Egg Mass Per Tick / Total Egg Mass / Total Viable Egg Mass / Viable Egg Mass Per Tick / Reduction in Ticks Laying Eggs: replicates combined
# Procedure: The effect of (S)-methoprene on oviposition, egg mass weights, and egg eclosion was measured in adult females of a colonized strain of the brown dog tick, Rhipicephalus sanguineus. Approximately fifty R. sanguineus ticks were fed on twelve dogs each. Fully engorged females that dropped from the dogs over a period of two days were collected and combined into replicates. The following replicates were formed: Replicate A-50 ticks, Replicate B-40 ticks, and Replicate C-10 ticks. From each replicate A-C, 5 groups of equal numbers of ticks were formed, each group of ticks having similar combined body weights. Each of the 5 groups of ticks was randomly allocated to a treatment group.
# The treatment groups were: Treatment I-Control: acetone/water (40%: 60%); Treatment 2-100 ppm (S)-methoprene dissolved in acetone/water (40:60); Treatment 3-1,000 ppm (S)-methoprene dissolved in acetone/water (40:60); Treatment 4-10,000 ppm (S)-methoprene dissolved in acetone/water (40:60); and Treatment 5-100,000 ppm (S)-methoprene dissolved in acetone/water (40:60). Each group of ticks was immersed in the appropriate test solution for two mins, after which they were removed, dried on a paper towel and placed in a clean container. All ticks in all treatment groups were kept in an environmental chamber maintained at 26-27° Celsius and 65-87% relative humidity. The number of ticks that laid eggs and total egg mass weights for each replicate of each treatment group was recorded 13 days after exposure to treatment. Additionally, an estimation of percentage of egg hatching for each replicate in each treatment group was recorded 48 days after exposure to treatment.
# The number of ticks laying eggs, egg mass weights, percentage of eggs that hatched, and weight of viable eggs are provided in Table 1.
# [1] = 100 ppm, Replicate A, 10 ticks treated
# [2] = 100 ppm, Replicate B, 8 ticks treated
# [3] = 100 ppm, Replicate C, 2 ticks treated
# [4] = 1,000 ppm, Replicate A, 10 ticks treated
# [5] = 1,000 ppm, Replicate B, 8 ticks treated
# [6] = 1,000 ppm, Replicate C, 2 ticks treated
# [7] = 10,000 ppm, Replicate A, 10 ticks treated
# [8] = 10,000 ppm, Replicate B, 8 ticks treated
# [9] = 10,000 ppm, Replicate C, 2 ticks treated
# [10] = 100,000 ppm, Replicate A, 10 ticks treated
# [11] = 100,000 ppm, Replicate B, 8 ticks treated
# [12] = 100,000 ppm, Replicate C, 2 ticks treated
# [13] = Treatment 3: 1,000 ppm, compared to control
# [14] = Treatment 4: 10,000 ppm, compared to control
# [15] = Treatment 5: 100,000 ppm, compared to control
structure (smiles),measurement,setting,value
COC(C)(C)CCC[C@H](C)C/C=C/C(C)=C/C(=O)OC(C)C [(S)-methoprene],Eggs Viable,[1],1.65 g
same,Number of Ticks Laying Eggs (Day 13),[1],10
same,Eggs Weight,[1],1.67 g
same,Eggs Hatch (%),"100 ppm, Replicate A",99%
same,Eggs Viable,[2],1.36 g
same,Number of Ticks Laying Eggs (Day 13),[2],8
same,Eggs Weight,[2],1.36 g
same,Eggs Hatch (%),"100 ppm, Replicate B",100%
same,Eggs Viable,[3],0.18 g
same,Number of Ticks Laying Eggs (Day 13),[3],2
same,Eggs Weight,[3],0.35 g
same,Eggs Hatch (%),"100 ppm, Replicate C",50%
same,Eggs Viable,[4],0.26 g
same,Number of Ticks Laying Eggs (Day 13),[4],9
same,Eggs Weight,[4],1.03 g
same,Eggs Hatch (%),"1,000 ppm, Replicate A",25%
same,Eggs Viable,[5],0.29 g
same,Number of Ticks Laying Eggs (Day 13),[5],8
same,Eggs Weight,[5],0.95 g
same,Eggs Hatch (%),"1,000 ppm, Replicate B",30%
same,Eggs Viable,[6],0.10 g
same,Number of Ticks Laying Eggs (Day 13),[6],2
same,Eggs Weight,[6],0.28 g
same,Eggs Hatch (%),"1,000 ppm, Replicate C",35%
same,Eggs Viable,[7],0 g
same,Number of Ticks Laying Eggs (Day 13),[7],10
same,Eggs Weight,[7],0.97 g
same,Eggs Hatch (%),"10,000 ppm, Replicate A",0%
same,Eggs Viable,[8],0 g
same,Number of Ticks Laying Eggs (Day 13),[8],8
same,Eggs Weight,[8],0.57 g
same,Eggs Hatch (%),"10,000 ppm, Replicate B",0%
same,Eggs Viable,[9],0 g
same,Number of Ticks Laying Eggs (Day 13),[9],2
same,Eggs Weight,[9],0.14 g
same,Eggs Hatch (%),"10,000 ppm, Replicate C",0%
same,Eggs Viable,[10],0 g
same,Number of Ticks Laying Eggs (Day 13),[10],8
same,Eggs Weight,[10],0.59 g
same,Eggs Hatch (%),"100,000 ppm, Replicate A",0%
same,Eggs Viable,[11],0 g
same,Number of Ticks Laying Eggs (Day 13),[11],8
same,Eggs Weight,[11],0.39 g
same,Eggs Hatch (%),"100,000 ppm, Replicate B",0%
same,Eggs Viable,[12],0 g
same,Number of Ticks Laying Eggs (Day 13),[12],2
same,Eggs Weight,[12],0.05 g
same,Eggs Hatch (%),"100,000 ppm, Replicate C",0%
same,inhibition at 100 ppm,"Treatment 2: 100 ppm, compared to control, read-out: Reduction Viable Egg Mass Per Tick",0%
same,inhibition at 100 ppm,"Treatment 2: 100 ppm, compared to control, read-out: Reduction in Viable Egg Mass",0%
same,inhibition at 1000 ppm,"Treatment 3: 1,000 ppm, compared to control, read-out: Reduction Viable Egg Mass Per Tick",78%
same,inhibition at 1000 ppm,"Treatment 3: 1,000 ppm, compared to control, read-out: Reduction in Viable Egg Mass",79%
same,inhibition at 10000 ppm,"Treatment 4: 10,000 ppm, compared to control, read-out: Reduction Viable Egg Mass Per Tick",100%
same,inhibition at 10000 ppm,"Treatment 4: 10,000 ppm, compared to control, read-out: Reduction in Viable Egg Mass",100%
same,inhibition at 100000 ppm,"Treatment 5: 100,000 ppm, compared to control, read-out: Reduction Viable Egg Mass Per Tick",100%
same,inhibition at 100000 ppm,"Treatment 5: 100,000 ppm, compared to control, read-out: Reduction in Viable Egg Mass",100%
same,Egg Mass Per Tick,Treatment 2: 100 ppm,0.169 g
same,Total Egg Mass,Treatment 2: 100 ppm,3.38 g
same,Total Viable Egg Mass,Treatment 2: 100 ppm,3.19 g
same,Viable Egg Mass Per Tick,Treatment 2: 100 ppm,0.160 g
same,Reduction in Ticks Laying Eggs,"Treatment 2: 100 ppm, compared to control",0%
same,Egg Mass Per Tick Reduction,[13],28%
same,Reduction of Total Egg Mass,[13],32%
same,Egg Mass Per Tick,"Treatment 3: 1,000 ppm",0.119 g
same,Total Egg Mass,"Treatment 3: 1,000 ppm",2.26 g
same,Total Viable Egg Mass,"Treatment 3: 1,000 ppm",0.65 g
same,Viable Egg Mass Per Tick,"Treatment 3: 1,000 ppm",0.034 g
same,Reduction in Ticks Laying Eggs,[13],5%
same,Egg Mass Per Tick Reduction,[14],49%
same,Reduction Viable Egg Mass Per Tick,[14],100%
same,Reduction of Total Egg Mass,[14],49%
same,Egg Mass Per Tick,"Treatment 4: 10,000 ppm",0.084 g
same,Total Egg Mass,"Treatment 4: 10,000 ppm",1.68 g
same,Total Viable Egg Mass,"Treatment 4: 10,000 ppm",0 g
same,Viable Egg Mass Per Tick,"Treatment 4: 10,000 ppm",0 g
same,Reduction in Ticks Laying Eggs,[14],0%
same,Egg Mass Per Tick Reduction,[15],65%
same,Reduction in Viable Egg Mass,[15],100%
same,Reduction of Total Egg Mass,[15],69%
same,Egg Mass Per Tick,"Treatment 5: 100,000 ppm",0.057 g
same,Total Egg Mass,"Treatment 5: 100,000 ppm",1.03 g
same,Total Viable Egg Mass,"Treatment 5: 100,000 ppm",0 g
same,Viable Egg Mass Per Tick,"Treatment 5: 100,000 ppm",0 g
same,Reduction in Ticks Laying Eggs,[15],10%
